In patent US11066396B2 (priority 2016, dated 2021):
pIC50: −log10 of the molar value.

What was measured:
HDAC1 = HDAC1 (Homo sapiens (Human), UniProt Q13547); conditions: read-out: HDAC1 IC50
Protocol: Assay protocol: In brief, compounds were titrated in 100% DMSO via accoustic dispensing directly to the assay plate using the ECHO 550 [Labcyte]. HDAC enzymes at the concentrations indicated above were added in assay buffer to the assay plates containing the compounds using a Combi [Thermo Scientific]. The wells were mixed, and the plates were allowed to pre-incubate at ambient temperature for 3 h. After the 3 h, the appropriate substrate, at the concentrations indicated above, was added to the wells using a Combi. The wells were mixed, and the plates were allowed to incubate at ambient temperature for 1 h. After the 1 h, the appropriate Developer/stop solution was added to the wells using a Combi. The wells were mixed, and the plates were allowed to incubate at ambient temperature for 1 h. […] Data were analyzed using 4P curve fitting with Activity Base [IDBS] software.

HDAC8 = HDAC8 (Homo sapiens (Human), UniProt Q9BY41); conditions: read-out: HDAC8 IC50
Sequence of HDAC8 (Q9BY41 whole entry): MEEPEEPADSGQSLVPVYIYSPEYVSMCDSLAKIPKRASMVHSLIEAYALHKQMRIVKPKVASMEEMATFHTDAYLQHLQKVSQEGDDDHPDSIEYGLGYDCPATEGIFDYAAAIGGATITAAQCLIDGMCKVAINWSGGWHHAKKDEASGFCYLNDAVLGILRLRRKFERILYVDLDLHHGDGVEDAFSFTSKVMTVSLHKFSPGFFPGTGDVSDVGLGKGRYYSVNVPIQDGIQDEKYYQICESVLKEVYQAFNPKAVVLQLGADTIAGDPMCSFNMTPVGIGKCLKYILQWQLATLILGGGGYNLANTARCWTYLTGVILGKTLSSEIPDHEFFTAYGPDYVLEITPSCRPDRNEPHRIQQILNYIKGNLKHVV

Sequence of HDAC1 (Q13547 whole entry): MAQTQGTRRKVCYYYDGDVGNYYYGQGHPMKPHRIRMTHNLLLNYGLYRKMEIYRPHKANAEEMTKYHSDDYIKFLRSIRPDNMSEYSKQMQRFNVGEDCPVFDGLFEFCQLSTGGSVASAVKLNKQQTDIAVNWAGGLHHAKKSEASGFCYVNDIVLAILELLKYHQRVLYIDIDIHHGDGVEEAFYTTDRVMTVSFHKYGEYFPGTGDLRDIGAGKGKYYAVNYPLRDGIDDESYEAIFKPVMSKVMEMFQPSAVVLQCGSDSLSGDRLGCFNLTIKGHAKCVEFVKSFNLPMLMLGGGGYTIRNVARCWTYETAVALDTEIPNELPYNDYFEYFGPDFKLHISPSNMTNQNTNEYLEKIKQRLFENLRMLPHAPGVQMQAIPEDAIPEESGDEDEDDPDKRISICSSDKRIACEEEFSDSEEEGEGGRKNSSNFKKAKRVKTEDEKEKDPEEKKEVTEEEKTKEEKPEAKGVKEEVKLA

Q: `O=C1CCC(c2cccc(Cl)c2)N1c1ccc(-c2noc(C(F)(F)F)n2)cc1F` (racemic) [Example 116, 5-(3-chlorophenyl)-1-(2-fluoro-4-(5-(trifluoromethyl)-1,2,4-oxadiazol-3-yl)phenyl)pyrrolidin-2-one] was tested. Which pIC50 (HDAC1) did it give?
A: The pIC50 was 5.80.

Q: And the pIC50 (HDAC8)?
A: Its pIC50 is 4.85.

Q: `COc1ccc(NCc2ccc(-c3noc(C(F)(F)F)n3)cn2)cn1` [Example 363, 6-methoxy-N-({5-[5-(trifluoromethyl)-1,2,4-oxadiazol-3-yl]pyridin-2-yl}methyl)pyridin-3-amine] was tested. Which pIC50 (HDAC1) did it give?
A: The pIC50 was 6.28.

Q: And the pIC50 (HDAC8)?
A: The pIC50 was 5.47.

Q: Which results are given for `O=C1CCC(c2ccc(-c3noc(C(F)(F)F)n3)cc2)N1c1ccccc1F` (stereo not shown) [Example 329]?
A: pIC50 (HDAC1): 5.41; pIC50 (HDAC8): 5.10

Q: Which results are given for `O=C(CCn1cncn1)N(Cc1ccc(-c2noc(C(F)(F)F)n2)cc1)c1cccc(C(F)(F)F)c1` [Example 89, 3-(1H-1,2,4-triazol-1-yl)-N-(4-(5-(trifluoromethyl)-1,2,4-oxadiazol-3-yl)benzyl)-N-(3-(trifluoromethyl)phenyl)propanamide]?
A: pIC50 (HDAC1): 5.96; pIC50 (HDAC8): 5.70

Q: What does the source list for `Cn1ncc(NCc2ccc(-c3noc(C(F)(F)F)n3)cn2)n1` [Example 366, 2-methyl-N-({5-[5-(trifluoromethyl)-1,2,4-oxadiazol-3-yl]pyridin-2-yl}methyl)-2H-1,2,3-triazol-4-amine]?
A: pIC50 (HDAC1): 5.89; pIC50 (HDAC8): 5.57

Q: With `O=C(c1cncnc1)N(Cc1ccc(-c2noc(C(F)(F)F)n2)cc1)c1cccc(C(F)(F)F)c1` [Example 71, N-(4-(5-(trifluoromethyl)-1,2,4-oxadiazol-3-yl)benzyl)-N-(3-(trifluoromethyl)phenyl)pyrimidine-5-carboxamide] as the compound, how does the pIC50 (HDAC1) read?
A: Its pIC50 is 6.17.

Q: And the pIC50 (HDAC8)?
A: Its pIC50 is 5.55.

Q: Which results are given for `FC(F)(F)c1nc(-c2ccc(N3CCOCC3c3cccnc3)nc2)no1` (stereo not shown) [Example 143, 3-(pyridin-3-yl)-4-(5-(5-(trifluoromethyl)-1,2,4-oxadiazol-3-yl)pyridin-2-yl)morpholine]?
A: pIC50 (HDAC1): 5.21; pIC50 (HDAC8): 5.55

Q: How did the pIC50 (HDAC1) turn out when `NC(=O)c1ncccc1NCc1ccc(-c2noc(C(F)(F)F)n2)cn1` [Example 445, 3-[({5-[5-(trifluoromethyl)-1,2,4-oxadiazol-3-yl]pyridin-2-yl}methyl)amino]pyridine-2-carboxamide] was run?
A: The pIC50 was 6.07.

Q: What about the pIC50 (HDAC8) of the same compound?
A: The pIC50 was 5.66.

Q: Which results are given for `O=C([C@@H]1CCC(=O)N1c1cc(F)c(-c2noc(C(F)(F)F)n2)cc1F)N1CCc2ccccc2C1` [Example 335, (5S)-1-{2,5-difluoro-4-[5-(trifluoromethyl)-1,2,4-oxadiazol-3-yl]phenyl}-5-(3,4-dihydroisoquinolin-2(1H)-ylcarbonyl)pyrrolidin-2-one]?
A: pIC50 (HDAC1): 5.92; pIC50 (HDAC8): 5.13

Q: `O=C([C@@H]1CCC(=O)N1c1cc(F)c(-c2noc(C(F)(F)F)n2)cc1F)N1CCC1` [Example 341, (5S)-5-(azetidin-1-ylcarbonyl)-1-{2,5-difluoro-4-[5-(trifluoromethyl)-1,2,4-oxadiazol-3-yl]phenyl}pyrrolidin-2-one] was tested. Which pIC50 (HDAC1) did it give?
A: Its pIC50 is 4.39.

Q: What about the pIC50 (HDAC8) of the same compound?
A: The pIC50 was 4.59.

Q: With `FC(F)(F)c1nc(-c2ccc(CNc3cccc4[nH]ncc34)cc2)no1` [Example 415, N-{4-[5-(trifluoromethyl)-1,2,4-oxadiazol-3-yl]benzyl}-1H-indazol-4-amine] as the compound, how does the pIC50 (HDAC1) read?
A: The pIC50 was 5.80.

Q: What about the pIC50 (HDAC8) of the same compound?
A: The pIC50 was 5.60.

Q: How did the pIC50 (HDAC1) turn out when `FC(F)(F)c1nc(-c2ccc(CNc3ccc4nccn4c3)nc2)no1` [Example 357, N-({5-[5-(trifluoromethyl)-1,2,4-oxadiazol-3-yl]pyridin-2-yl}methyl)imidazo[1,2-a]pyridin-6-amine] was run?
A: The pIC50 was 6.68.

Q: And the pIC50 (HDAC8)?
A: The pIC50 was 6.02.

Q: Which results are given for `O=C(Nc1ccccc1)c1ccccc1NCc1ccc(-c2noc(C(F)(F)F)n2)cn1` [Example 447, N-phenyl-2-[({5-[5-(trifluoromethyl)-1,2,4-oxadiazol-3-yl]pyridin-2-yl}methyl)amino]benzamide]?
A: pIC50 (HDAC1): 6.01; pIC50 (HDAC8): 6.13

Q: `FC(F)(F)c1nc(-c2ccc(CNc3cnccn3)nc2)no1` [Example 368, N-({5-[5-(trifluoromethyl)-1,2,4-oxadiazol-3-yl]pyridin-2-yl}methyl)pyrazin-2-amine] was tested. Which pIC50 (HDAC1) did it give?
A: The pIC50 was 6.00.

Q: What about the pIC50 (HDAC8) of the same compound?
A: Its pIC50 is 6.05.

Q: How did the pIC50 (HDAC1) turn out when `O=C(Cc1[nH]nc2ccccc12)N(Cc1ccc(-c2noc(C(F)(F)F)n2)cn1)c1cccc(F)c1` [Example 397, N-(3-fluorophenyl)-2-(2H-indazol-3-yl)-N-({5-[5-(trifluoromethyl)-1,2,4-oxadiazol-3-yl]pyridin-2-yl}methyl)acetamide] was run?
A: Its pIC50 is 6.38.

Q: What about the pIC50 (HDAC8) of the same compound?
A: The pIC50 was 5.96.

Q: With `O=C(CCCn1cncn1)N(Cc1ccc(-c2noc(C(F)(F)F)n2)cc1)c1cccc(C(F)(F)F)c1` [Example 72, 4-(1H-1,2,4-triazol-1-yl)-N-(4-(5-(trifluoromethyl)-1,2,4-oxadiazol-3-yl)benzyl)-N-(3-(trifluoromethyl)phenyl)butanamide] as the compound, how does the pIC50 (HDAC1) read?
A: Its pIC50 is 5.72.

Q: What about the pIC50 (HDAC8) of the same compound?
A: Its pIC50 is 5.70.

Q: `O=C(C1CCS(=O)(=O)CC1)N(Cc1cnc(-c2noc(C(F)(F)F)n2)cn1)c1cccc(C(F)(F)F)c1` [Example 470, N-({5-[5-(trifluoromethyl)-1,2,4-oxadiazol-3-yl]pyrazin-2-yl}methyl)-N-[3-(trifluoromethyl)phenyl]tetrahydro-2H-thiopyran-4-carboxamide 1,1-dioxide] was tested. Which pIC50 (HDAC1) did it give?
A: The pIC50 was 5.96.

Q: What about the pIC50 (HDAC8) of the same compound?
A: Its pIC50 is 5.00.

Q: `Cn1c([C@@H]2CCC(=O)N2c2ccc(-c3noc(C(F)(F)F)n3)cc2F)nc2ccccc21` [Example 107, (S)-1-(2-fluoro-4-(5-(trifluoromethyl)-1,2,4-oxadiazol-3-yl)phenyl)-5-(1-methyl-1H-benzo[d]imidazol-2-yl)pyrrolidin-2-one] was tested. Which pIC50 (HDAC1) did it give?
A: Its pIC50 is 6.52.

Q: What about the pIC50 (HDAC8) of the same compound?
A: The pIC50 was 5.66.

Q: Which results are given for `O=C1CC[C@@H](c2nc3ccccc3[nH]2)N1c1ccc(-c2noc(C(F)(F)F)n2)cc1` [Example 21, (S)-5-(1H-Benzo[d]imidazol-2-yl)-1-(4-(5-(trifluoromethyl)-1,2,4-oxadiazol-3-yl)phenyl)pyrrolidin-2-one]?
A: pIC50 (HDAC1): 6.96; pIC50 (HDAC8): 6.18

Q: `Cc1cn(C(C)C(=O)N(Cc2ccc(-c3noc(C(F)(F)F)n3)cn2)c2cccc(F)c2)nn1` (racemic) [Example 64, N-(3-fluorophenyl)-2-(4-methyl-1H-1,2,3-triazol-1-yl)-N-((5-(5-(trifluoromethyl)-1,2,4-oxadiazol-3-yl)pyridin-2-yl)methyl)propanamide] was tested. Which pIC50 (HDAC1) did it give?
A: The pIC50 was 6.70.

Q: What about the pIC50 (HDAC8) of the same compound?
A: Its pIC50 is 5.55.

Q: With `OCc1ccnc(NCc2ccc(-c3noc(C(F)(F)F)n3)cn2)c1` [Example 367, {2-[({5-[5-(trifluoromethyl)-1,2,4-oxadiazol-3-yl]pyridin-2-yl}methyl)amino]pyridin-4-yl}methanol] as the compound, how does the pIC50 (HDAC1) read?
A: The pIC50 was 6.09.

Q: And the pIC50 (HDAC8)?
A: The pIC50 was 6.06.

Q: What does the source list for `CC1(C)CCCN1C(=O)[C@@H]1CCC(=O)N1c1cc(F)c(-c2noc(C(F)(F)F)n2)cc1F` [Example 339, (5S)-1-{2,5-difluoro-4-[5-(trifluoromethyl)-1,2,4-oxadiazol-3-yl]phenyl}-5-[(2,2-dimethylpyrrolidin-1-yl)carbonyl]pyrrolidin-2-one]?
A: pIC50 (HDAC1): 4.89; pIC50 (HDAC8): 4.35

Q: How did the pIC50 (HDAC1) turn out when `O=C1COC[C@@H](c2ccccc2)N1c1ccc(-c2noc(C(F)(F)F)n2)nn1` [Example 165, (R)-5-phenyl-4-(6-(5-(trifluoromethyl)-1,2,4-oxadiazol-3-yl)pyridazin-3-yl)morpholin-3-one] was run?
A: Its pIC50 is 4.55.

Q: And the pIC50 (HDAC8)?
A: Its pIC50 is 4.68.

Q: How did the pIC50 (HDAC1) turn out when `FC(F)(F)c1nc(-c2ccc(CNc3cc4ccccn4n3)nc2)no1` [Example 365, N-({5-[5-(trifluoromethyl)-1,2,4-oxadiazol-3-yl]pyridin-2-yl}methyl)pyrazolo[1,5-a]pyridin-2-amine] was run?
A: Its pIC50 is 5.92.

Q: What about the pIC50 (HDAC8) of the same compound?
A: The pIC50 was 5.74.

Q: How did the pIC50 (HDAC1) turn out when `CC(C)c1ncncc1C(=O)N(Cc1ccc(-c2noc(C(F)(F)F)n2)cn1)c1cccc(F)c1` [Example 399, N-(3-fluorophenyl)-4-(1-methylethyl)-N-({5-[5-(trifluoromethyl)-1,2,4-oxadiazol-3-yl]pyridin-2-yl}methyl)pyrimidine-5-carboxamide] was run?
A: Its pIC50 is 6.03.

Q: What about the pIC50 (HDAC8) of the same compound?
A: Its pIC50 is 5.51.

Q: How did the pIC50 (HDAC1) turn out when `O=C1CCC(c2ccccc2Cl)N1c1ccc(-c2noc(C(F)(F)F)n2)c(F)c1` (racemic) [Example 37, 5-(2-chlorophenyl)-1-(3-fluoro-4-(5-(trifluoromethyl)-1,2,4-oxadiazol-3-yl)phenyl)pyrrolidin-2-one] was run?
A: Its pIC50 is 4.80.

Q: And the pIC50 (HDAC8)?
A: The pIC50 was 5.00.

Q: How did the pIC50 (HDAC1) turn out when `CC(C)(C)OC(=O)[C@@H]1CCC(=O)N1c1ccc(-c2noc(C(F)(F)F)n2)c(F)c1` [Example 331, tert-butyl 1-{3-fluoro-4-[5-(trifluoromethyl)-1,2,4-oxadiazol-3-yl]phenyl}-5-oxo-L-prolinate] was run?
A: Its pIC50 is 5.31.

Q: And the pIC50 (HDAC8)?
A: Its pIC50 is 4.72.

Q: How did the pIC50 (HDAC1) turn out when `Cc1nc2cc(F)ccc2n1Cc1ccc(-c2noc(C(F)(F)F)n2)cc1F` [Example 29, 3-(3-Fluoro-4-((5-fluoro-2-methyl-1H-benzo[d]imidazol-1-yl)methyl)phenyl)-5-(trifluoromethyl)-1,2,4-oxadiazole] was run?
A: Its pIC50 is 5.80.

Q: What about the pIC50 (HDAC8) of the same compound?
A: Its pIC50 is 5.09.

Q: Which results are given for `CC(C)C(=O)N1CCC(C(=O)N(Cc2ccc(-c3noc(C(F)(F)F)n3)cc2)c2cccc(C(F)(F)F)c2)CC1` [Example 90, 1-isobutyryl-N-(4-(5-(trifluoromethyl)-1,2,4-oxadiazol-3-yl)benzyl)-N-(3-(trifluoromethyl)phenyl)piperidine-4-carboxamide]?
A: pIC50 (HDAC1): 5.85; pIC50 (HDAC8): 5.60

Q: How did the pIC50 (HDAC1) turn out when `Cc1noc([C@@H]2COCC(=O)N2c2ccc(-c3noc(C(F)(F)F)n3)cc2)n1` [Example 47, (S)-5-(3-methyl-1,2,4-oxadiazol-5-yl)-4-(4-(5-(trifluoromethyl)-1,2,4-oxadiazol-3-yl)phenyl)morpholin-3-one] was run?
A: Its pIC50 is 5.82.

Q: And the pIC50 (HDAC8)?
A: The pIC50 was 5.52.

Q: `O=C(C1CCOCC1)N(Cc1ccc(-c2noc(C(F)(F)F)n2)cc1)c1cccc(C(F)(F)F)c1` [Example 85, N-(4-(5-(trifluoromethyl)-1,2,4-oxadiazol-3-yl)benzyl)-N-(3-(trifluoromethyl)phenyl)tetrahydro-2H-pyran-4-carboxamide] was tested. Which pIC50 (HDAC1) did it give?
A: The pIC50 was 5.92.

Q: And the pIC50 (HDAC8)?
A: The pIC50 was 5.64.

Q: With `FC(F)(F)c1nc(-c2ccc(CN(c3ccccn3)c3ccccn3)cc2)no1` [Example 27, N-(Pyridin-2-yl)-N-(4-(5-(trifluoromethyl)-1,2,4-oxadiazol-3-yl)benzyl)pyridin-2-amine] as the compound, how does the pIC50 (HDAC1) read?
A: The pIC50 was 5.43.

Q: What about the pIC50 (HDAC8) of the same compound?
A: The pIC50 was 5.32.
